Experimental data: US20260374756A1, “HETEROCYCLIC COMPOUNDS AS INHIBITORS OF MONOACYLGLYCEROL LIPASE (MAGL)” (Hoffmann-La Roche Inc., priority 2022, published 2026)

biological target: T1, hMAGL (Homo sapiens, UniProt Q99685); experiment: 2-AG assay: MAGL inhibition, hydrolysis of 2-arachidonoylglycerol to arachidonic acid followed by mass spectrometry; format: biochemical
T1 sequence (Q99685 1-303): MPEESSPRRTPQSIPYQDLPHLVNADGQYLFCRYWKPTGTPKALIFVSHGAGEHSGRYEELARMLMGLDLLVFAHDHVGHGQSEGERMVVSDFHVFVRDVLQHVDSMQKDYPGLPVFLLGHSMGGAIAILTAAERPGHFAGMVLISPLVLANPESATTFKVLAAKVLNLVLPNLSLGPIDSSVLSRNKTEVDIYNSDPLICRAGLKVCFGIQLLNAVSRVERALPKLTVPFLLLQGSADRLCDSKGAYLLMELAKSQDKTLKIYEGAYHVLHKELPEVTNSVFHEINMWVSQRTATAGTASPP
Description: Compounds of formula (I) were profiled for MAGL inhibitory activity by determining the enzymatic activity by following the hydrolysis of the natural substrate 2-arachidonoylglycerol (2-AG) resulting in arachidonic acid, which can be followed by mass spectrometry. This assay is hereinafter abbreviated “2-AG assay”. The 2-AG assay was carried out in 384 well polypropylene assay plates. […] Compound dilutions were added to MAGL protein in assay buffer (50 mM TRIS, 1 mM EDTA, 0.01% (v/v) Tween-20, 2.5% (v/v) DMSO). After shaking, the plate was incubated for 15 min at RT. To start the reaction, 2-arachidonoylglycerol in assay buffer was added. The final concentrations in the assay was […] for MAGL protein and 8 μM 2-arachidonoylglyerol. After shaking and 30 min incubation at RT, the reaction was quenched by the addition of two assay volumes of acetonitrile containing 4 μM of d8-arachidonic acid. The amount of arachidonic acid formed was traced by an online SPE system (Agilent Rapidfire) coupled to a triple quadrupole mass spectrometer. A C18 SPE cartridge (Agilent G9205A) was used in an acetonitrile/water liquid setup. […] The activity of the compounds was calculated based on the ratio of intensities [arachidonic acid/d8-arachidonic acid].

Compound | IC50
Cn1cc(C(F)(F)F)c(CC2CC3(C2)CN(C(=O)N2CC4(CC(n5cnc(C6(O)CC6)n5)C4)C2)C3)n1 [Example 289, [6-[3-(1-hydroxycyclopropyl)-1,2,4-triazol-1-yl]-2-azaspiro[3.3]heptan-2-yl]-[6-[[1-methyl-4-(trifluoromethyl)pyrazol-3-yl]methyl]-2-azaspiro[3.3]heptan-2-yl]methanone] | 2.9 nM
O=C(N1CC2(CC(Cc3nc(C(F)(F)F)c[nH]3)C2)C1)N1CC2(CC(n3cnc(C4CC4)n3)C2)C1 [Example 351, [6-(3-cyclopropyl-1,2,4-triazol-1-yl)-2-azaspiro[3.3]heptan-2-yl]-[6-[[4-(trifluoromethyl)-1H-imidazol-2-yl]methyl]-2-azaspiro [3.3]heptan-2-yl]methanone] | 0.77 nM
O=C(N1CC2(CC(n3cnc(C4CC4)n3)C2)C1)N1CC2(CN(Cc3cnn4ccccc34)C2)C1 [Example 285, [6-(3-cyclopropyl-1,2,4-triazol-1-yl)-2-azaspiro[3.3]heptan-2-yl]-[6-(pyrazolo[1,5-a]pyridin-3-ylmethyl)-2,6-diazaspiro[3.3]heptan-2-yl]methanone] | 13.4 nM
O=C(N1CC2(CC(n3cnc(C4CC4)n3)C2)C1)N1CC2(CN(Cc3ncc(C(F)(F)F)[nH]3)C2)C1 [Example 232, [6-(3-cyclopropyl-1,2,4-triazol-1-yl)-2-azaspiro[3.3]heptan-2-yl]-[6-[[5-(trifluoromethyl)-1H-imidazol-2-yl]methyl]-2,6-diazaspiro[3.3]heptan-2-yl]methanone] | 79.8 nM
Cc1cc(C2CC2)nn1CC1CC2(C1)CN(C(=O)N1CC3(CC(n4cnc(C5CC5)n4)C3)C1)C2 [Example 135, [6-[(3-cyclopropyl-5-methyl-pyrazol-1-yl)methyl]-2-azaspiro[3.3]heptan-2-yl]-[6-(3-cyclopropyl-1,2,4-triazol-1-yl)-2-azaspiro[3.3]heptan-2-yl]methanone] | 0.23 nM
CCc1nsc(CN2CC3(C2)CN(C(=O)N2CC4(CC(n5cnc(C(F)(F)F)n5)C4)C2)C3)n1 [Example 286, [6-[(3-ethyl-1,2,4-thiadiazol-5-yl)methyl]-2,6-diazaspiro[3.3]heptan-2-yl]-[6-[3-(trifluoromethyl)-1,2,4-triazol-1-yl]-2-azaspiro[3.3]heptan-2-yl]methanone] | 120 nM
O=C(N1CC2(CC(Cc3nc(CC(F)(F)F)n[nH]3)C2)C1)N1CC2(CC(n3cnc(C4(O)CC4)n3)C2)C1 [Example 205, [6-[3-(1-hydroxycyclopropyl)-1,2,4-triazol-1-yl]-2-azaspiro[3.3]heptan-2-yl]-[6-[[3-(2,2,2-trifluoroethyl)-1H-1,2,4-triazol-5-yl]methyl]-2-azaspiro[3.3]heptan-2-yl]methanone] | 72.9 nM
O=C(N1CC2(CC(Cc3nc(CC(F)(F)F)n[nH]3)C2)C1)N1CC2(CC(n3cnc(C(F)(F)F)n3)C2)C1 [Example 204, [6-[[3-(2,2,2-trifluoroethyl)-1H-1,2,4-triazol-5-yl]methyl]-2-azaspiro[3.3]heptan-2-yl]-[6-[3-(trifluoromethyl)-1,2,4-triazol-1-yl]-2-azaspiro[3.3]heptan-2-yl]methanone] | 25.8 nM
Cc1nc(C(F)(F)F)c(CN2CC3(C2)CN(C(=O)N2CC4(CC(n5cnc(C6CC6)n5)C4)C2)C3)s1 [Example 86, [6-(3-cyclopropyl-1,2,4-triazol-1-yl)-2-azaspiro[3.3]heptan-2-yl]-[6-[[2-methyl-4-(trifluoromethyl)thiazol-5-yl]methyl]-2,6-diazaspiro[3.3]heptan-2-yl]methanone] | 2.65 nM
O=C(N1CC2(CC(n3cnc(C(F)(F)F)n3)C2)C1)N1CC2(CN(Cc3ccn(C(F)(F)F)n3)C2)C1 [Example 116, [6-[[1-(trifluoromethyl)pyrazol-3-yl]methyl]-2,6-diazaspiro[3.3]heptan-2-yl]-[6-[3-(trifluoromethyl)-1,2,4-triazol-1-yl]-2-azaspiro[3.3]heptan-2-yl]methanone] | 161 nM
O=C(N1CC2(CC(Cc3ncn(CC(F)(F)F)n3)C2)C1)N1CC2(CC(n3cnc(C4CC4)n3)C2)C1 [Example 339, [6-(3-cyclopropyl-1,2,4-triazol-1-yl)-2-azaspiro[3.3]heptan-2-yl]-[6-[[1-(2,2,2-trifluoroethyl)-1,2,4-triazol-3-yl]methyl]-2-azaspiro[3.3]heptan-2-yl]methanone] | 3.7 nM
O=C(N1CC2(CC(Cc3cc(C4CC4)n[nH]3)C2)C1)N1CC2(CC(n3cnc(C(F)(F)F)n3)C2)C1 [Example 123, [6-[(3-cyclopropyl-1H-pyrazol-5-yl)methyl]-2-azaspiro[3.3]heptan-2-yl]-[6-[3-(trifluoromethyl)-1,2,4-triazol-1-yl]-2-azaspiro[3.3]heptan-2-yl]methanone] | 0.34 nM
O=C(N1CC2(CC(Cc3cnn(C(F)(F)F)c3)C2)C1)N1CC2(CC(n3cnc(C4(O)CC4)n3)C2)C1 [Example 14] | 6.35 nM
N#Cc1cnn(CC2CC3(C2)CN(C(=O)N2CC4(CC(n5cnc(C6(O)CC6)n5)C4)C2)C3)c1 [Example 38] | 190 nM

Continued by falling IC50, values first:

IC50 | Compound
149 nM | O=C(N1CC2(CC(n3cnc(C4CC4)n3)C2)C1)N1CC2(CN(Cc3nnn(CC(F)(F)F)n3)C2)C1 [Example 194, [6-(3-cyclopropyl-1,2,4-triazol-1-yl)-2-azaspiro[3.3]heptan-2-yl]-[6-[[2-(2,2,2-trifluoroethyl)tetrazol-5-yl]methyl]-2,6-diazaspiro[3.3]heptan-2-yl]methanone]
7.53 nM | O=C(N1CC2(CC(n3cnc(C4CC4)n3)C2)C1)N1CC2(CN(Cc3cc(C(F)(F)F)on3)C2)C1 [Example 190, [6-(3-cyclopropyl-1,2,4-triazol-1-yl)-2-azaspiro[3.3]heptan-2-yl]-[6-[[5-(trifluoromethyl)isoxazol-3-yl]methyl]-2,6-diazaspiro[3.3]heptan-2-yl]methanone]
7.07 nM | O=C(N1CC2(CC(Cc3n[nH]c(C(F)(F)F)n3)C2)C1)N1CC2(CC(n3cnc(C(F)(F)F)n3)C2)C1 [Example 9, [6-[3-(trifluoromethyl)-1,2,4-triazol-1-yl]-2-azaspiro[3.3]heptan-2-yl]-[6-[[5-(trifluoromethyl)-1H-1,2,4-triazol-3-yl]methyl]-2-azaspiro[3.3]heptan-2-yl]methanone]
2.64 nM | O=C(N1CC2(CC(n3cnc(C4CC4)n3)C2)C1)N1CC2(CN(Cc3cc(C(F)(F)F)ns3)C2)C1 [Example 154, [6-(3-cyclopropyl-1,2,4-triazol-1-yl)-2-azaspiro[3.3]heptan-2-yl]-[6-[[3-(trifluoromethyl)isothiazol-5-yl]methyl]-2,6-diazaspiro[3.3]heptan-2-yl]methanone]
1.86 nM | O=C(N1CC2(CCN(Cc3cc(C(F)(F)F)sn3)CC2)C1)N1CC2(CC(n3cnc(C4CC4)n3)C2)C1 [Example 47, [6-(3-cyclopropyl-1,2,4-triazol-1-yl)-2-azaspiro[3.3]heptan-2-yl]-[7-[[5-(trifluoromethyl)isothiazol-3-yl]methyl]-2,7-diazaspiro[3.5]nonan-2-yl]methanone]
0.4 nM | O=C(N1CC2(CC(Cn3ccnc3C(F)(F)F)C2)C1)N1CC2(CC(c3cc(C4CC4)n[nH]3)C2)C1 [Example 145, [6-(3-cyclopropyl-1H-pyrazol-5-yl)-2-azaspiro[3.3]heptan-2-yl]-[6-[[2-(trifluoromethyl)imidazol-1-yl]methyl]-2-azaspiro[3.3]heptan-2-yl]methanone]
